Values of other authors, collected in EP0385476B2, “Physiologically active polypeptide and DNA” (SHIONOGI & CO., LTD., priority 1989, dated 1999).

Tested on: chicken rectum
Conditions: relative to ANP

Substance: porcine brain natriuretic peptide [pBNP]
- rectum relaxation activity, times higher than that of ANP: 3 to 4 times
